Test results reported in patent US20090270443A1, “1-AMINO IMIDAZO-CONTAINING COMPOUNDS AND METHODS” (priority 2004, published 2009).

Row | melting point [°C] | Structure (SMILES)
1 | 110 to 120 | CCOCc1nc2c(N)nc(C)c(C)c2n1NC(C)C [Example 1, 2-(Ethoxymethyl)-N^1-isopropyl-6,7-dimethyl-1H-imidazo[4,5-c]pyridine-1,4-diamine]
2 | 119 to 121 | CCOCc1nc2c(N)ncc(C)c2n1NC(C)C [Example 2, 2-(Ethoxymethyl)-N^1-isopropyl-7-methyl-1H-imidazo[4,5-c]pyridine-1,4-diamine]
3 | 139 to 141 | CCOCc1nc2c(N)nc(C)cc2n1NC(C)C [Example 3, 2-(Ethoxymethyl)-N^1-isopropyl-6-methyl-1H-imidazo[4,5-c]pyridine-1,4-diamine]
4 | 150 to 152 | CCOCc1nc2c(N)nc3cccnc3c2n1NC(C)C [Example 4, 2-(Ethoxymethyl)-N^1-isopropyl-1H-imidazo[4,5-c][1,5]naphthyridine-1,4-diamine]
5 | 242 to 243 | CC(C)Nn1c(CO)nc2c(N)nc3cccnc3c21 [Example 6, [4-Amino-1-(isopropylamino)-1H-imidazo[4,5-c][1,5]naphthyridin-2-yl]methanol]
6 | 212 to 213 | CCc1nc2c(N)nc3cccnc3c2n1NC(C)C [Example 7, 2-Ethyl-N^1-isopropyl-1H-imidazo[4,5-c][1,5]naphthyridine-1,4-diamine]
7 | 176 to 178 | CCc1nc2c(N)nc3cccnc3c2n1NCCCNS(C)(=O)=O [Example 8, N-{3-[(4-amino-2-ethyl-1H-imidazo[4,5-c][1,5]naphthyridin-1-yl)amino]propyl}methanesulfonamide]
8 | 170 to 171 | CCOCc1nc2c(N)nc(C)c(C)c2n1N(C)C [Example 9, 2-(Ethoxymethyl)-N^1,N^1,6,7-tetramethyl-1H-imidazo[4,5-c]pyridine-1,4-diamine]
9 | 205 to 207 | Cc1nc(N)c2ncn(N(C)C)c2c1C [Example 10, N^1,N^1,6,7-Tetramethyl-1H-imidazo[4,5-c]pyridine-1,4-diamine]
10 | 203 to 205 | Cc1nc(N)c2nc(C)n(NC(C)C)c2c1C [Example 11, N^1-Isopropyl-2,6,7-trimethyl-1H-imidazo[4,5-c]pyridine-1,4-diamine]
11 | 257 to 259 | Cc1nc(N)c2nc(CO)n(NC(C)C)c2c1C [Example 12, (4-Amino-1-isopropylamino-6,7-dimethyl-1H-imidazo[4,5-c]pyridin-2-yl)methanol]
12 | 147 to 149 | CCOCc1nc2c(N)nc(C)c(C)c2n1NCCCNS(C)(=O)=O [Example 13, N-{3-[(4-Amino-2-ethoxymethyl-6,7-dimethyl-1H-imidazo[4,5-c]pyridin-1-yl)amino]propyl}methanesulfonamide]
13 | 166 to 168 | CCOCc1nc2c(N)nc(C)c(C)c2n1NCCCNC(=O)C1CCCCC1 [Example 14, N-{3-[(4-Amino-2-ethoxymethyl-6,7-dimethyl-1H-imidazo[4,5-c]pyridin-1-yl)amino]propyl}cyclohexanecarboxamide]
14 | 215 to 217 | Cc1nc(N)c2nc(C)n(NCCCNS(C)(=O)=O)c2c1C [Example 15, N-{3-[(4-Amino-2,6,7-trimethyl-1H-imidazo[4,5-c]pyridin 1-yl)amino]propyl}methanesulfonamide]
15 | 203 to 205 | CCOCc1nc2c(N)nc(C)c(C)c2n1NCCCNC(=O)NC(C)C [Example 16, 1-{3-[(4-Amino-2-ethoxymethyl-6,7-dimethyl-1H-imidazo[4,5-c]pyridin-1-yl)amino]propyl}-3-isopropylurea]
16 | 108 to 110 | CCOCc1nc2c(N)nc(C)c(C)c2n1NC1CCCCC1 [Example 17, N^1-Cyclohexyl-2-ethoxymethyl-6,7-dimethyl-1H-imidazo[4,5-c]pyridine-1,4-diamine]
17 | > 250 | Cc1nc(N)c2nc(CO)n(NC3CCCCC3)c2c1C [Example 18, (4-Amino-1-cyclohexylamino-6,7-dimethyl-1H-imidazo[4,5-c]pyridin-2-yl)methanol]
